The test system of this assay is HCV replicon (HCV1b sub-genomic, Huh-7 cells). In words: HCV replicon RNA replication assay (luciferase reporter). The class given is cell-based, Hepatitis C virus (CON-1 genotype b). To be noted: Hepatitis C virus. Here is the method:
All curve fitting was conducted using non-linear regression analyses from PRISM (version 4.0c, GraphPad Inc.) and the determination of Rmax and EC50 or IC50 parameters were obtained from sigmoidal dose-response phase (variable slope) equation.
The replicon HCV1b is generated based on the wild-type sequence CON-1 genotype b (GenBank accession number AJ238799; Lohmann et al., Science 1999, 285: 110-113) and expressed the sub-genomic fragment HCV NS3-NS4A-NS4B-NS5A-NS5B. The replicon contain a hybrid HCV-IRES 5′UTR, a modified luciferase reporter gene expressed as a luciferase-Ubi-neomycin phosphotransferase gene fusion and an EMCV IRES NS3-NS5B subgenomic fragment with its 3′UTR. To generate cell lines harboring the replicon, Huh-7 cells are electroporated with purified in vitro HCV1b RNA transcripts and stable cell lines are selected in the presence of G418. Stable replicon cell lines are established as described in Science 1999, 285: 110-113. The amount of luciferase expressed by selected cells directly correlates with the level of HCV RNA replication, as measured by real-time PCR.
Stable HCV replicon cells are maintained in Dulbecco's Modified Eagle Medium (DMEM) supplemented with 10% FBS and 0.5 mg/ml G418. During the assay, DMEM supplemented with 10% FBS, containing 0.5% DMSO and lacking G418 are used as assay medium. For the assay, cell stocks are trypsinized and diluted in assay medium to distribute 7,500 cells in 96-well plates. The plates are then incubated at 37° until compound addition. Serial dilutions of the test compound are prepared in 100% DMSO, before dilution in assay medium to a final DMSO concentration of 0.5% to generate a concentration dose response curves. A fixed volume from each well of the compound dilution plate is transferred to a corresponding well of the cell culture plate. The cell culture plate is incubated at 37° C. with 5% CO2 for 72 hours. Following the 72 h incubation period, the medium is aspirated from the 96-well assay plate and a volume of 50_l of lysis buffer 100 mM Tris acetate, 20 mM Mg acetate, 2 mM EGTA, 3.6 mM ATP, 1% Brij 58, 0.7%_-mercaptoethanol containing 45_g/ml luciferine (pH 7.9) is added to each well. The luciferase activity is determined using the luciferase substrate and the luminescence is detected on a MicroBeta JET 1450 LSC & Luminescence Counter (Perkin Elmer) instrument. The luminescence in each well of the culture plate is a measure of the amount of HCV RNA replication in the presence of various concentrations of inhibitor. The % inhibition is calculated for each inhibitor concentration and used to determine the concentration that results in 50% inhibition of HCV replication (EC50).

[1] abbreviates: Huh-7, 72 h, read-out: EC50 (Range).

Each structure is given as a SMILES string. Where two headings read alike, the source gives them in different places.

These results are taken from patent US20150133495A1 (ViroCura Therapeutics, Inc., priority 2013, published 2015).

As to `CC(C)c1onc(-c2ccccc2Cl)c1C(=O)O/N=C(\N)c1ccc(OCc2ccc(Cl)cc2)cc1` [Example 12, (Z)-4-((4-chlorobenzyl)oxy)-N′-((3-(2-chlorophenyl)-5-isopropylisoxazole-4-carbonyl)oxy)benzimidamide], the EC50 under setting [1] lay in the range of 500 to 1000 nM.

In the case of `N/C(=N\OC(=O)c1c(C(F)(F)F)cccc1C(F)(F)F)c1ccc2c(c1)OCO2` [Example 4, (Z)—N′-((2,6-bis(trifluoromethyl)benzoyl)oxy)benzo[d][1,3]dioxole-5-carboximidamide], the EC50 under setting [1] is 1000 to 10000 nM.

For the compound `Cc1onc(-c2ccccc2Cl)c1C(=O)O/N=C(/c1ccc2c(c1)OCO2)N(C)C` [Example 19, (Z)—N′-((3-(2-chlorophenyl)-5-methylisoxazole-4-carbonyl)oxy)-N,N-dimethylbenzo[d][1,3]dioxole-5-carboximidamide], the half-maximal effective concentration (EC50) under setting [1] lay within 1000 to 10000 nM.

As to `COc1cccc(/C(N)=N/OC(=O)c2c(-c3ccccc3Cl)noc2C)c1` [Example 50, (Z)—N′-((3-(2-chlorophenyl)-5-methylisoxazole-4-carbonyl)oxy)-3-methoxybenzimidamide], the EC50 under setting [1] lay within 500 to 1000 nM.

`Cc1noc(C)c1C(=O)O/N=C(\N)c1cccc(C(F)(F)F)c1` [Compound 61, reference compound]: for the setting “Huh-7”, the EC50 lay within 1000 to 10000 nM.

For `Cc1onc(-c2ccccc2Cl)c1C(=O)O/N=C(\N)c1cccc(Br)c1` [Example 34, (Z)-3-Bromo-N′-((3-(2-chlorophenyl)-5-methylisoxazole-4-carbonyl)oxy)benzimidamide], the EC50 under setting [1] fell in the range of 1000 to 10000 nM.

Consider `N/C(=N\OC(=O)c1conc1-c1ccccc1Cl)c1ccc2c(c1)OCO2` [Example 1, (Z)—N′-((3-(2-chlorophenyl)isoxazole-4-carbonyl)oxy)benzo[d][1,3]dioxole-5-carboximidamide], for which the EC50 under setting [1] fell in the range of 1000 to 10000 nM.

Take `Cc1noc(C)c1C(=O)O/N=C(\N)c1ccc(OCc2ccc(Cl)cc2)cc1` [Example 32, (Z)-4-((4-chlorobenzyl)oxy)-N′-((3,5-dimethylisoxazole-4-carbonyl)oxy)benzimidamide]: under setting [1], the concentration for a half-maximal effect (EC50) lay in the range of 500 to 1000 nM.

In the case of `COc1ccccc1C/C(N)=N/OC(=O)c1c(-c2ccccc2Cl)noc1C` [Example 22], the 50% effective concentration (EC50) under setting [1] was less than 500 nM.

On to `N/C(=N\OC(=O)c1c(-c2ccccc2Cl)noc1-c1ccncc1)c1ccc2c(c1)OCO2` [Example 17, (Z)—N′-((3-(2-chlorophenyl)-5-(pyridin-4-yl)isoxazole-4-carbonyl)oxy)benzo[d][1,3]dioxole-5-carboximidamide], for which the half-maximal effective concentration (EC50) under setting [1] was in the range of 1000 to 10000 nM.

As for `Cc1nc(/C(N)=N\OC(=O)c2c(-c3ccccc3)noc2C)cs1` [Example 30, (E)-2-methyl-N′-((5-methyl-3-phenylisoxazole-4-carbonyl)oxy)thiazole-4-carboximidamide], the concentration giving a half-maximal response (EC50) under setting [1] lay within 1000 to 10000 nM.

Take `N/C(=N\OC(=O)c1ccccc1-c1ccccc1C(=O)O)c1ccc2c(c1)OCO2` [Example 45, (Z)-2′-((((amino(benzo[d][1,3]dioxol-5-yl)methylene)amino)oxy)carbonyl)-[1,1′-biphenyl]-2-carboxylic acid]: the half-maximal effective concentration (EC50) under setting [1] was more than 10000 nM.

`CN/C(=N\OC(=O)c1c(-c2ccccc2Cl)noc1C)c1ccc2c(c1)OCO2` [Example 14, (Z)—N′-((3-(2-chlorophenyl)-5-methylisoxazole-4-carbonyl)oxy)-N-methylbenzo[d][1,3]dioxole-5-carboximidamide]: the concentration for a half-maximal effect (EC50) under setting [1] was less than 500 nM.

For the compound `Cc1cccc(C)c1C(=O)O/N=C(\N)c1ccc(-c2csnn2)cc1` [Example 42, (Z)—N′-((2,6-dimethylbenzoyl)oxy)-4-(1,2,3-thiadiazol-4-yl)benzimidamide], the concentration for a half-maximal effect (EC50) under setting [1] lay within 500 to 1000 nM.

As for `Cc1onc(-c2ccccc2Cl)c1C(=O)O/N=C(\NCc1cccnc1)c1ccc2c(c1)OCO2` [Example 21, (Z)—N′-((3-(2-chlorophenyl)-5-methylisoxazole-4-carbonyl)oxy)-N-(pyridin-3-ylmethyl)benzo[d][1,3]dioxole-5-carboximidamide], under setting [1], the EC50 is 500 to 1000 nM.

For `N/C(=N\OC(=O)c1ccccc1C(F)(F)F)c1ccc2c(c1)OCO2` [Example 35, (Z)—N′-((2-(trifluoromethyl)benzoyl)oxy)benzo[d][1,3]dioxole-5-carboximidamide], the EC50 under setting [1] lay within 1000 to 10000 nM.

For `COc1ccccc1/C(N)=N/OC(=O)c1c(C)cccc1C` [Example 3, (Z)—N′-((2,6-dimethylbenzoyl)oxy)-2-methoxybenzimidamide], the EC50 under setting [1] was less than 500 nM.

On to `Cc1cccc(C)c1C(=O)O/N=C(\N)CCc1ccc(Br)cc1` [Example 8, (Z)-3-(4-bromophenyl)-N′-((2,6-dimethylbenzoyl)oxy)propanimidamide], for which the EC50 under setting [1] is less than 500 nM.

As to `COc1ccccc1C/C(N)=N/OC(=O)c1c(-c2ccccc2Cl)noc1C(C)C` [Example 15, (Z)—N′-((3-(2-chlorophenyl)-5-isopropylisoxazole-4-carbonyl)oxy)-2-(2-methoxyphenyl)acetimidamide], the EC50 under setting [1] was less than 500 nM.

As for `CC(C(=O)O/N=C(\N)c1ccc2c(c1)OCO2)(c1ccccc1)c1ccccc1` [Example 9, (Z)—N′-((2,2-diphenylpropanoyl)oxy)benzo[d][1,3]dioxole-5-carboximidamide], under setting [1], the EC50 was less than 500 nM.

As to `Cc1onc(-c2ccccc2Cl)c1C(=O)O/N=C1/CCCCN1` [Compound 64, reference compound], for the setting “Huh-7”, the EC50 is less than 500 nM.

As for `COc1ccc(C/C(N)=N/OC(=O)c2ccccc2-c2ccccc2)cc1` [Example 5, (Z)—N′-(([1,1′-biphenyl]-2-carbonyl)oxy)-2-(4-methoxyphenyl)acetimidamide], the concentration giving a half-maximal response (EC50) under setting [1] is less than 500 nM.

In the case of `Cc1onc(-c2ccccc2Cl)c1C(=O)O/N=C(\N)c1ccc(OCc2ccc(Cl)nc2)cc1` [Example 49, (Z)—N′-((3-(2-chlorophenyl)-5-methylisoxazole-4-carbonyl)oxy)-4-((6-chloropyridin-3-yl)methoxy)benzimidamide], the EC50 under setting [1] was less than 500 nM.

As for `COCc1onc(-c2ccccc2Cl)c1C(=O)O/N=C(\N)c1ccc2c(c1)OCO2` [Example 16, (Z)—N′-((3-(2-chlorophenyl)-5-(methoxymethyl)isoxazole-4-carbonyl)oxy)benzo[d][1,3]dioxole-5-carboximidamide], the EC50 under setting [1] lay in the range of 500 to 1000 nM.

Regarding `Cc1ccc(/C(N)=N/OC(=O)c2cc(C)oc2C)cc1` [Example 25, (Z)—N′-((2,5-dimethylfuran-3-carbonyl)oxy)-4-methylbenzimidamide], the EC50 under setting [1] lay in the range of 1000 to 10000 nM.

With `COc1ccc(C/C(N)=N/OC(=O)c2c(-c3ccccc3Cl)noc2C)cc1` [Example 23, (Z)—N′-((3-(2-chlorophenyl)-5-methylisoxazole-4-carbonyl)oxy)-2-(4-methoxyphenyl)acetimidamide], the concentration for a half-maximal effect (EC50) under setting [1] fell in the range of 500 to 1000 nM.

On to `Cc1cccc(C)c1C(=O)O/N=C(\N)c1ccccc1OCc1ccc(F)cc1` [Example 41, (Z)—N′-((2,6-dimethylbenzoyl)oxy)-2-((4-fluorobenzyl)oxy)benzimidamide], for which the EC50 under setting [1] is less than 500 nM.

Turning to `COc1ccc(/C(N)=N/OC(=O)c2c(-c3ccccc3Cl)noc2C)cc1` [Example 46, (Z)—N′-((3-(2-chlorophenyl)-5-methylisoxazole-4-carbonyl)oxy)-4-methoxybenzimidamide], under setting [1], the half-maximal effective concentration (EC50) fell in the range of 500 to 1000 nM.

`N/C(=N\OC(=O)c1c(-c2ccccc2Cl)noc1C1CC1)c1ccc2c(c1)OCO2` [Example 11, (Z)—N′-((3-(2-chlorophenyl)-5-cyclopropylisoxazole-4-carbonyl)oxy)benzo[d][1,3]dioxole-5-carboximidamide]: under setting [1], the concentration for a half-maximal effect (EC50) is less than 500 nM.

`CC(C)(C(=O)O/N=C(\N)c1ccc2c(c1)OCO2)c1ccccc1` [Example 6, (Z)—N′-((2-methyl-2-phenylpropanoyl)oxy)benzo[d][1,3]dioxole-5-carboximidamide]: under setting [1], the EC50 was 500 to 1000 nM.

Under “Huh-7”, `Cc1noc(-c2ccc(Cl)cc2)c1C(=O)O/N=C(\N)c1ccc(Cl)cc1` [Compound 60, reference compound] displayed an EC50 of 500 to 1000 nM.

With `Cc1cccc(C)c1C(=O)O/N=C(\N)c1ccc(OCc2ccc(Cl)cc2)cc1` [Example 40, (Z)-4-((4-chlorobenzyl)oxy)-N′-((2,6-dimethylbenzoyl)oxy)benzimidamide], the EC50 under setting [1] is less than 500 nM.

Turning to `COc1ccc(C/C(N)=N/OC(=O)c2c(C)cccc2C)c(OC)c1` [Example 2, (Z)-2-(2,4-dimethoxyphenyl)-N′-((2,6-dimethylbenzoyl)oxy)acetimidamide], the EC50 under setting [1] is less than 500 nM.
